39 compounds from ChEMBL document CHEMBL1142990, “Self-organizing maps for identification of new inhibitors of P-glycoprotein” (J Med Chem, 2007) can be followed below.

This assay addresses ATP-dependent translocase ABCB1 (Homo sapiens, UniProt P08183). The assay can be described thus: Inhibition of P-glycoprotein expressed in MDR CCRF vcr1000 cells by daunorubicin efflux assay.

Molecules are shown by their SMILES.

ATP-dependent translocase ABCB1, sequence (P08183 whole entry): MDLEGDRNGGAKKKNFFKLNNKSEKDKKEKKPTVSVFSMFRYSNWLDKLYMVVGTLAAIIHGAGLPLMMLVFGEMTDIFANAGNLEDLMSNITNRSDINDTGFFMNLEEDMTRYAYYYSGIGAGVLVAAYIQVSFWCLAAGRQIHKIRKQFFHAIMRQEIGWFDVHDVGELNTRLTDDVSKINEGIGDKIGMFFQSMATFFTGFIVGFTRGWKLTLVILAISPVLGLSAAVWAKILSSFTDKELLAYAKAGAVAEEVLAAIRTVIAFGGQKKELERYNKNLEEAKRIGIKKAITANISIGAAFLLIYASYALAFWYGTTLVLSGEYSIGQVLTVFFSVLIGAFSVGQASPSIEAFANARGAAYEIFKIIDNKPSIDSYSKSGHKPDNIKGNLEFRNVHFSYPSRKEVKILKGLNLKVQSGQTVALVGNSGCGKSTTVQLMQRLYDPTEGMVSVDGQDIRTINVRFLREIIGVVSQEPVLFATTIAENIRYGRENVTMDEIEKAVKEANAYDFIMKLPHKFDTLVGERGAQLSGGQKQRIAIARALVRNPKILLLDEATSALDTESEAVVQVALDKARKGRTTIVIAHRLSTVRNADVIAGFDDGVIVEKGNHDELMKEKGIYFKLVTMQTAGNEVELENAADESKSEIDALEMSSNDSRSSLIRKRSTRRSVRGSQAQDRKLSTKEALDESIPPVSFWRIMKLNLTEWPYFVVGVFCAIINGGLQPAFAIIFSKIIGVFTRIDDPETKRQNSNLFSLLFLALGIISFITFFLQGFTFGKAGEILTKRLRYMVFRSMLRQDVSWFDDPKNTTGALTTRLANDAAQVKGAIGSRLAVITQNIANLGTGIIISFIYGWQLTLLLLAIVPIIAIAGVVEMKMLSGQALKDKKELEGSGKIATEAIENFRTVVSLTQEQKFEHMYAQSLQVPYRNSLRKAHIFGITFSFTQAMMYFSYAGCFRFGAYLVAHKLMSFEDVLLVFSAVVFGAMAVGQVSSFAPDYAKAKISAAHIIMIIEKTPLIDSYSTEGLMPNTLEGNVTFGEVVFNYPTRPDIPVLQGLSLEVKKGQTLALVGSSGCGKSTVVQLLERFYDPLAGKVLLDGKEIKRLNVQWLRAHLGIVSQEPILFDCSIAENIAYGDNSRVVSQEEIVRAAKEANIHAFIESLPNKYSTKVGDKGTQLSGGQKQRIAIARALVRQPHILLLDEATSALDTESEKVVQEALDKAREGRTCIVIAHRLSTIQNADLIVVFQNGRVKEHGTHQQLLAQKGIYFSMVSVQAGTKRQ

As usually defined, the EC50 is the concentration giving half of the maximal effect. A high value points to weaker potency. The compound `CC(=O)c1cccc(OCC(=O)CN2CCN(c3cccc(C)c3C)CC2)c1` displayed an EC50 of 0.379 µM.
To `CCCN(C)CC(O)COc1ccccc1C(=O)CCc1ccccc1` (centres undefined) belongs 0.416 µM.
Compound `Clc1ccccc1-c1nc(N2CCCC2)c2ccccc2n1` gave an EC50 of 5.94 µM.
With `CC(=O)c1ccc(OCC(O)CN2CCCCC2)cc1` (centres undefined) the figure was 49 µM.
For the compound `CC(=O)c1ccccc1OCC(O)CN1CCCCC1` (centres undefined), the EC50 was found to be 32 µM.
For the compound `CCCNC[C@@H](O)c1oc2ccccc2c1CCc1ccccc1`, the response was half-maximal at 1.1 µM (EC50).
`CN(C)CC(O)COc1ccccc1C(=O)CCc1ccccc1` (centres undefined) gave an EC50 of 2.48 µM.
With `CCOc1ccc(N2C(=O)c3ccccc3NC2c2ccc(N(C)C)cc2)cc1` (centres undefined) the figure was 25.1 µM.
`COc1ccc(OCC(O)CN2CCN(c3ccccc3C)CC2)c(C(C)=O)c1` (centres undefined) had an EC50 of 0.859 µM.
Compound `COc1ccc(C(=O)CCc2ccc(N(C)C)cc2)c(OCC(O)CN2CCN(c3ccccc3C)CC2)c1` (centres undefined) returned an EC50 of 0.04 µM.
To `O=C(CCc1ccccc1)c1ccccc1OCC(O)CN1CCN(C(=O)c2ccccc2)CC1` (centres undefined) belongs 0.13 µM; to `CC(C)N(CC(O)COc1ccc(C(=O)CCc2ccccc2)cc1)C(C)C` (centres undefined), 0.915 µM; to `O=C(CCc1ccccc1)c1ccccc1OCC(O)CN1CCN(c2ccc(F)cc2)CC1` (centres undefined), 0.07 µM.
Take `CC(C)N(CC(O)COc1ccccc1C(O)CCc1ccccc1)C(C)C` (centres undefined): the EC50 came out at 1.74 µM.
With `CC(C)N(CC(O)COc1ccccc1C(=O)CCc1ccccc1)C(C)C` (centres undefined) the figure was 0.377 µM; with `O=C(CCc1ccccc1)c1ccccc1OCC(O)CNCC(c1ccccc1)c1ccccc1` (centres undefined), 0.797 µM; with `O=C(CCc1cccc2ccccc12)c1ccccc1OCC(O)CN1CCCCC1` (centres undefined), 0.172 µM.
With `Cn1cc(I)c(C(=O)NNC(=O)c2ccnn2C)n1` the figure was above 500 µM; with `O=C(CCc1ccccc1)c1ccccc1OCC(O)CN1CCN(Cc2ccccc2)CC1` (centres undefined), 0.659 µM; with `OC(COc1ccccc1C(O)CCc1ccccc1)CN1CCOCC1` (centres undefined), 9.54 µM.
On to `CCCNCC(O)COc1ccc(OCc2ccccc2)cc1C(=O)CCc1ccccc1` (centres undefined), for which the EC50 is 0.11 µM.
In turn, `Cc1cccc(N2CCN(CC(O)COc3cccc(C(=O)CCc4ccccc4)c3)CC2)c1C` (centres undefined) showed an EC50 of 0.137 µM.
With `O=C1c2cccc(OCC(O)CN3CCCCC3)c2CC1Cc1ccccc1` (centres undefined) the figure was 0.142 µM; with `COC(CCc1ccccc1)c1ccccc1OCC(O)CN1CCCCC1` (centres undefined), 0.173 µM.
To `O=C(CCc1ccccc1)c1ccc(OCC(O)CN2CCOCC2)cc1` (centres undefined) belongs 6.88 µM.
With `O=C(CCc1ccccc1)c1cccc(OCC(O)CN2CCN(c3ccc(F)cc3)CC2)c1` (centres undefined) the figure was 1.12 µM; with `COc1ccc(C2Nc3ccccc3C(=O)N2c2ccc(Oc3ccccc3)cc2)cc1` (centres undefined), 1 µM; with `O=C(CCc1ccccc1)c1ccc(OCC(O)CNCCC(c2ccccc2)c2ccccc2)cc1` (centres undefined), 0.505 µM.
`CCOC(=O)C(=NNc1c(Cl)cc(Cl)cc1Cl)C(=O)OCC` showed an EC50 of 17.7 µM.
To `O=C(CCc1ccccc1)c1ccccc1OCC(O)CNc1ccc([N+](=O)[O-])cc1` (centres undefined) belongs 2.57 µM; to `CCOCCOC(=O)c1ccc(N)cc1`, 312 µM.
Turning to `O=C(CCc1ccccc1)c1ccccc1OCCCN1CCCCC1`, the EC50 amounted to 0.651 µM.
Take `Cc1ccccc1N1CCN(CC(O)COc2ccccc2C(=O)CCc2ccccc2)CC1` (centres undefined): the EC50 was found to be 0.027 µM.
To `CCc1ccc(N2C(=O)c3ccccc3NC2c2ccc(OCc3ccccc3)cc2)cc1` (centres undefined) belongs above 100 µM; to `CC(=O)c1ccc(OCC(O)CN2CCN(c3ccccc3C)CC2)cc1` (centres undefined), 1.55 µM; to `CC(C)(C)C(NCC(O)COc1ccccc1C(=O)CCc1ccccc1)c1ccccc1` (centres undefined), 0.292 µM.
Take `COC(CCc1ccccc1)c1ccccc1OCC(O)CN1CCOCC1` (centres undefined): the EC50 worked out at 1.81 µM.
To `O=C(CCc1ccccc1)c1ccccc1OCCCCN1CCOCC1` belongs 1.01 µM.
To `Cc1ccc(N2CCN(CC(O)COc3cccc4c3C(=O)C(Cc3ccccc3)C4)CC2)c(C)c1` (centres undefined) belongs 0.167 µM.
